Test results taken from patent US20240294595A1, “GLYCOPEPTIDES AND USES THEREOF” (Arizona Board of Regents on Behalf of the University of …, priority 2013, published 2024).
“Also recorded” adds a separate entry of the source.

How the values were obtained:
[1] = molecular target: T1, VPAC1 (Homo sapiens, UniProt P32241); assay: VPAC1 agonist data (Table 2); format: cell-based
T1 sequence (P32241 31-457): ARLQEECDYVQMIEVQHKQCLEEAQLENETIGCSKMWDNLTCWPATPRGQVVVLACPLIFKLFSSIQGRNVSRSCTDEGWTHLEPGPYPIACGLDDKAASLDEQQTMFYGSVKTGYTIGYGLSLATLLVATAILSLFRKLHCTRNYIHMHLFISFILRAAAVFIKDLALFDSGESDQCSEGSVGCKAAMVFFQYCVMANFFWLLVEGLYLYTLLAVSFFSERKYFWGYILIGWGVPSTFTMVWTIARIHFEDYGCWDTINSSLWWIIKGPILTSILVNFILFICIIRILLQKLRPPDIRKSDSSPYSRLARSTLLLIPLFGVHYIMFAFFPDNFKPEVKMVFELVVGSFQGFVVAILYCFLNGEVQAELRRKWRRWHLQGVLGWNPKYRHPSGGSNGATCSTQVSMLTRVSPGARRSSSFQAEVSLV

[2] = molecular target: T2, VPAC2 (Homo sapiens, UniProt P41587); assay: VPAC2 agonist data (Table 2); format: cell-based
T2 sequence (P41587 24-438): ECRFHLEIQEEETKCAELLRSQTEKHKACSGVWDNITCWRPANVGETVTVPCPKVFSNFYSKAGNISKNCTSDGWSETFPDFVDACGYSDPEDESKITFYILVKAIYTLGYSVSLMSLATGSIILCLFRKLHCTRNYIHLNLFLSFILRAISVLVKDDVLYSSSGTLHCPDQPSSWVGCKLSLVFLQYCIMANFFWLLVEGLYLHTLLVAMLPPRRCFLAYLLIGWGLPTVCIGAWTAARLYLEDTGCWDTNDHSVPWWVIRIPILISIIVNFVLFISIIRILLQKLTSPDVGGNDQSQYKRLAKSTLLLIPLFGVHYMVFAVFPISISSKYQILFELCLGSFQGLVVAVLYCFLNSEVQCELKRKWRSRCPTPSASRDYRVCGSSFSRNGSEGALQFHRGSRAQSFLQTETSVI

[3] = tested on: traumatic brain injury (TBI); assay: mouse model of diffuse TBI (midline fluid percussion injury); format: in vivo
Experimental: Lead compound 2LS80Mel was evaluated for its neuroprotective potential in vivo utilizing a mouse model of traumatic brain injury (TBI). Mice were pretreated with either a single dose of 2LS80Mel (10 mg/kg i.p.) or sterile saline 30 min prior to being subjected to a midline fluid percussion injury. The mice were then evaluated for sleep-wake behavior (FIGS. 8A-C), motor skills and cognition, (FIGS. 8D-F), the presence of inflammatory markers, (FIGS. 8G-L), and microglial morphology (FIGS. 8M-O).

[4] = molecular target: T3, PAC1 (Homo sapiens, UniProt P41586); assay: PAC1 agonist data (Table 2); format: cell-based; set-up: host or cells: CHO (clonal line PAC1-CHO)
T3 sequence (P41586 21-468): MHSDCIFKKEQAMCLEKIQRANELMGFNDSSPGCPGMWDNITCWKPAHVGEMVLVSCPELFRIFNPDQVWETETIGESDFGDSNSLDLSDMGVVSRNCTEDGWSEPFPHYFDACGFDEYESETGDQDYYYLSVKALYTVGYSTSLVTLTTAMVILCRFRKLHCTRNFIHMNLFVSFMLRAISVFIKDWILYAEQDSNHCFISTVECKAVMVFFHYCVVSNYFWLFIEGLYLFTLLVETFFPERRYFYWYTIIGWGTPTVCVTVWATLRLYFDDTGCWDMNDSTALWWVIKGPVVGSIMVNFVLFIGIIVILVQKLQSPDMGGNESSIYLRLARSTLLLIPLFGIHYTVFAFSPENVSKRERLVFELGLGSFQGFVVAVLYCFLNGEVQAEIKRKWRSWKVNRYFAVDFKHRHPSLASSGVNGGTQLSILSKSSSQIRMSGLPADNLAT
Experimental: A custom DNA clone of the human PAC1 gene with 3 hemagglutinin (HA) tags inserted 3′ to the signal peptide sequence (to avoid proteolytic loss) was obtained from Genecopoeia (Rockville, MD). The construct was electroporated into Chinese Hamster Ovary (CHO) cells, and selected for with 500 μg/mL of G418. The resulting population was screened for high expressing clones, and one such clone selected for further analysis. […] This cell line was used for all molecular pharmacology experiments. The cells were maintained in DMEM/F12 with 10% heat-inactivated FBS, 1× penicillin/streptomycin, and 500 μg/mL G418, at 37° C. and 5% CO2.
All molecular pharmacology experiments were carried out using a FLIPR Tetra from Molecular Devices (Sunnyvale, CA), set to image calcium flux using the manufacturer's recommended settings and protocols. The day before an experiment, the PAC1-CHO cells were split into 384 well black walled, clear bottom microplates, 10,000 cells per well. The cells were recovered overnight in growth medium (as above). The next day, the growth medium was replaced with Calcium 6 dye (Molecular Devices) using the manufacturer recommended buffer with 2.5 mM probenecid. The cells were incubated for 2 hours in the culture incubator, and removed during the last 15 minutes to allow equilibration to room temperature. Compound as indicated below was added to the cells using a 384 tip block, with real time monitoring before, during, and 15 minutes after compound addition. The resulting calcium flux was recorded, and the maximum-minimum response over the entire observation time calculated and reported as the mean±SEM (4 wells per point).
For agonist mode experiments, compound was added in an 11 point concentration curve, with a vehicle control (buffer). […] The response was analyzed using a 3 variable non-linear curve fit, and the EC50 (nM) and EMax (%) calculated and reported (Prism, GraphPad, La Jolla, CA).

[5] = stability in mouse serum at 37° C. (FI-MSn); format: in vitro ADME; conditions: for degradation in mouse serum: mouse serum at 37° C.
Source text: Chemical stability of the glycopeptides in vivo plays an important role in the deliverability of the drugs to the site(s) of action within the brain. It is also important to know what the chemical or metabolic instabilities are in order to inform the drug design process. […] Data were fitted using a single exponential decay model (R^2>0.71, in all cases).
The overall process was as follows: Flow-injection tandem mass spectrometry (FI-MS^n) was used to observe the degradation of the peptides and glycopeptides with a Thermo LCQ with electrospray ionization (ESI). The technique involved injection of a sample bolus of material in mouse serum via a six port valve with fluid flow delivered via a syringe pump, and subsequent electrospray ionization (ESI) followed by mass spectral analysis. Samples were diluted to a concentration of ˜5 μM of each PACAP analogue, and were incubated at 37° C. for times varying from 1 to 60 minutes. After samples had been incubated for the prescribed amount of time they were prepared for mass spectrometry analysis by withdrawing 10 microliters of solution and spiking with 1 microliter of a 10 μM solution of peptide internal standard (angiotensin II) in 50% acetic acid and subjecting them to a standard C18 zip tip desalting. These solutions, once eluted from the zip tip were diluted to 100 μL in 50:50 acetonitrile/water with 0.1% formic acid. Tandem mass spectrometry analysis (MS^3) was conducted to yield specific, quantitative signals proportional to the amount of PACAP analogue at each time point. This technique was also used with microdiasylate samples from a mouse after i.p. administration of PACAP1-27-S-G.

[6] = 10 mg/kg i.p. 30 min prior to TBI

CC[C@H](C)[C@H](NC(=O)CNC(=O)[C@H](CC(=O)O)NC(=O)[C@H](CO)NC(=O)[C@@H](N)Cc1c[nH]cn1)C(=O)N[C@@H](Cc1ccccc1)C(=O)N[C@H](C(=O)N[C@@H](CC(=O)O)C(=O)N[C@@H](CO)C(=O)N[C@@H](Cc1ccc(O)cc1)C(=O)N[C@@H](CO)C(=O)N[C@@H](CCCNC(=N)N)C(=O)N[C@@H](Cc1ccc(O)cc1)C(=O)N[C@@H](CCCNC(=N)N)C(=O)N[C@@H](CCCCN)C(=O)N[C@@H](CCC(N)=O)C(=O)N[C@@H](CC(C)C)C(=O)N[C@@H](C)C(=O)N[C@H](C(=O)N[C@@H](CCCCN)C(=O)N[C@@H](CCCCN)C(=O)N[C@@H](Cc1ccc(O)cc1)C(=O)N[C@@H](CC(C)C)C(=O)N[C@@H](C)C(=O)N[C@@H](C)C(=O)N[C@H](C(=O)N[C@@H](CC(C)C)C(=O)N[C@@H](CO[C@@H]1O[C@H](CO[C@H]2O[C@H](CO)[C@H](O)[C@H](O)[C@H]2O)[C@@H](O)[C@H](O)[C@H]1O)C(N)=O)C(C)C)C(C)C)[C@@H](C)O [Compound 2LS80Mel]
EC50 [1]: 550 pM
Emax [1]: 102%
EC50 [2]: 9400 pM
Emax [2]: 86%
cumulative minutes slept in the first 6 h post-injury [3, 6]: slept comparable minutes to uninjured sham animals
sleep in the first dark period [3, 6]: prevented this injury-induced increase in sleep
CD11b+Ly6Chigh and CD11b+CD115+Ly6Chigh monocyte populations ([3]; 10 mg/kg i.p. prior to TBI): not seen; also recorded: prevented increases in peripheral monocyte populations
sensorimotor deficits, modified NSS ([3]; 10 mg/kg i.p. prior to TBI): prevented
Rotarod latency to fall ([3]; 10 mg/kg i.p. prior to TBI, 2, 5, 7 DPI): comparable to uninjured shams at all time points post-injury
levels of select inflammatory cytokines ([3]; 2LS80Mel-treated vs saline-treated): no significant differences
microglial morphology ([3]; 2LS80Mel-treated vs saline-treated, 15 DPI): no significant differences
behavioral, neurological, and motor skill deficits ([3]; overall, FIG. 8): attenuated behavioral, neurological, and motor skill deficits
EC50 [4]: 570 pM
Emax [4]: 99%

CC[C@H](C)[C@H](NC(=O)CNC(=O)[C@H](CC(=O)O)NC(=O)[C@H](CO)NC(=O)[C@@H](N)Cc1cnc[nH]1)C(=O)N[C@@H](Cc1ccccc1)C(=O)N[C@H](C(=O)N[C@@H](CC(=O)O)C(=O)N[C@@H](CO)C(=O)N[C@@H](Cc1ccc(O)cc1)C(=O)N[C@@H](CO)C(=O)N[C@@H](CCCNC(=N)N)C(=O)N[C@@H](Cc1ccc(O)cc1)C(=O)N[C@@H](CCCNC(=N)N)C(=O)N[C@@H](CCCCN)C(=O)N[C@@H](CCC(N)=O)C(=O)N[C@@H](CCSC)C(=O)N[C@@H](C)C(=O)N[C@H](C(=O)N[C@@H](CCCCN)C(=O)N[C@@H](CCCCN)C(=O)N[C@@H](Cc1ccc(O)cc1)C(=O)N[C@@H](CC(C)C)C(=O)N[C@@H](C)C(=O)N[C@@H](C)C(=O)N[C@H](C(=O)N[C@@H](CC(C)C)C(N)=O)C(C)C)C(C)C)[C@@H](C)O [PACAP1-27, PACAP-27, reference compound]
degradation in mouse serum [5]: degraded over 30 min

CC[C@H](C)[C@H](NC(=O)CNC(=O)[C@H](CC(=O)O)NC(=O)[C@H](CO)NC(=O)[C@@H](N)Cc1c[nH]cn1)C(=O)N[C@@H](Cc1ccccc1)C(=O)N[C@H](C(=O)N[C@@H](CC(=O)O)C(=O)N[C@@H](CO)C(=O)N[C@@H](Cc1ccc(O)cc1)C(=O)N[C@@H](CO)C(=O)N[C@@H](CCCNC(=N)N)C(=O)N[C@@H](Cc1ccc(O)cc1)C(=O)N[C@@H](CCCNC(=N)N)C(=O)N[C@@H](CCCCN)C(=O)N[C@@H](CCC(N)=O)C(=O)N[C@@H](CCSC)C(=O)N[C@@H](C)C(=O)N[C@H](C(=O)N[C@@H](CCCCN)C(=O)N[C@@H](CCCCN)C(=O)N[C@@H](Cc1ccc(O)cc1)C(=O)N[C@@H](CC(C)C)C(=O)N[C@@H](C)C(=O)N[C@@H](C)C(=O)N[C@H](C(=O)N[C@@H](CC(C)C)C(=O)N[C@@H](CO[C@@H]1O[C@H](CO)[C@@H](O)[C@H](O)[C@H]1O)C(N)=O)C(C)C)C(C)C)[C@@H](C)O [PACAP1-27-S-G]
mouse serum t1/2 in vitro ([5]; compared to native / non-glycosylated peptide): significant increase
degradation in mouse serum [5]: degraded over 30 min
